Where a name gives a salt, the structure may show the parent alone. Values belong to the molecule of their own block, whether it stands above or below them. Where a SMILES comes first, the peptide text is derived from it. Bridges are numbered along the chain shown (N, C = ends). [ ]: non-standard residue; d: D form. The star is where a group is joined. Octanoyl(6-Me) = CCC(C)CCCCC(=O)*; Dab = NCC[C@H](N)C(=O)O
Assays:
[1] = system: Human embryonic kidney cells (HEK 293); assay: Cytotoxicity, MTT assay; assay type: cell-based; details: HEK 293, MTT, 72 h, n = 6
Description: Human embryonic kidney cells (HEK 293) purchased from the Cell Culture Collection of the Institute of Cytology RAS (St. Petersburg, Russia) were used to study the cytotoxicity of the conjugates. HEK 293 cells were cultured at 37 °C in a humidified atmosphere containing 5% CO2 in modified Eagle’s nutrient medium (MEM, Gibco, Billings, MT, USA) containing 1% essential amino acids, 1% L-glutamine, 50 μg/mL streptomycin, 50 U/mL penicillin, and 10 vol% thermally inactivated fetal bovine serum (FBS, HyClone, Logan, UT, USA). A total of 10^4 cells/100 µL/well was seeded into an adhesive 96-well plate and cultured for 1 day. After that, the medium was removed, and 100 µL of MEM with various concentrations of the test conjugates (4–1000 μg/mL with respect to the CT content) was added to each well with cells and incubated for 72 h. […] After the removal of the supernatant, formazan crystals produced by the metabolically viable cells were dissolved in DMSO (50 μL/well) and transferred to clean wells, followed by measuring the absorbance of the solutions at 570 nm using a multiwell plate reader (ThermoFisher Multiskan Labsystems, Waltham, MA, USA).
(§1) In the case of the CT release and conjugate stability experiments, each assay was performed in three repeats. […] The cell permeability assay and antimicrobial activity were analyzed with n = 3 and 4, respectively. […]

[2] = pH 7.4 and 37 °C; cited from earlier work
Description: The stability results of PMAG(10)-(DFOA,CT) conjugates with hydrolyzable (aldimine) bonds and reduced aldimine bonds in different media are summarized in Table 4. It was shown that the release in the buffer and the simulated biorelevant medium was consistent. […] Under gastric conditions, the release after 2 h was 20–26%, whereas under intestinal conditions, a release of 6–12% was detected.

[3] = Caco-2 cell permeability assay; assay type: in vitro ADME, human; details: Caco-2 monolayer, 21 days culture, apical to basolateral; 0.5 mg/mL according to CT content in 0.01 M phosphate buffer pH 7.2; PBS basolateral; 2 h, sampled every 30 min; B12 by spectrophotometry, CT by HPLC; mean, n = 3; read-out: apparent permeability coefficient (Papp)
Description: (§2) The human colon adenocarcinoma cells (Caco-2) obtained from the Cell Culture Collection of the Institute of Cytology RAS (St. Petersburg, Russia) were used to study cell permeability. The study was carried out as described elsewhere. Briefly, Caco-2 cells were cultured in Dulbecco’s modified Eagle medium (DMEM, Biolot, St. Petersburg, Russia) containing L-glutamine, streptomycin/penicillin and 10% FBS in cell culture flasks (area 75 cm^2, Jet Biofil, Guangzhou, China) at 37 °C in a CO2 incubator under humidified conditions. The cultured cells were re-seeded into a new cell culture flask (1:6 ratio) when the cells reached 80–90% confluence. […] The vitamin B12 content and the content of B12-containing conjugates equivalent to vitamin B12 were determined spectrophotometrically, and the CT transferred to the lower chamber was determined by HPLC analysis as described in Section 2.2.2.
(§3) The Papp was calculated as follows:(2) Papp=dQ/dt∗1/A∗C0 where Papp is the apparent permeability coefficient (cm/s), dQ/dt is the permeation rate (µg/s), A is the area of the monolayer (0.3 sm^2), and C0 is the concentration of the test substance in the apical chamber at the initial time point (µg/mL).
as §1

P. aeruginosa = details: concentration range of 0.25–64 µg/mL; cited from earlier work
Source text: The antibacterial activity of free CT and its polymeric conjugates was examined against P. aeruginosa. […] When analyzing the results of the MIC values for the conjugates studied, the following trends can be distinguished.

Caco-2 monolayer = assay: Caco-2 cell permeability assay; assay type: in vitro ADME, human; details: 21 days culture, apical to basolateral, 0.5 mg/mL according to CT content in 0.01 M phosphate buffer pH 7.2, PBS basolateral, 2 h, sampled every 30 min, B12 by spectrophotometry, CT by HPLC, mean, n = 3
Description: as §2, §3, §1

Molecule: CCC(C)CCCCC(=O)N[C@@H](CCN)C(=O)N[C@H](C(=O)N[C@@H](CCN)C(=O)N[C@H]1CCNC(=O)[C@H]([C@@H](C)O)NC(=O)[C@H](CCN)NC(=O)[C@H](CCN)NC(=O)[C@H](CC(C)C)NC(=O)[C@@H](CC(C)C)NC(=O)[C@H](CCN)NC1=O)[C@@H](C)O (stereo partly drawn) [CT, Polymyxin E (colistin, CT) sulfate salt] ({Octanoyl(6-Me)}-[Dab]T[Dab][Dab][Dab][dL]L[Dab][Dab]T; lactam 4-C; N-terminus assumed)
concentration up to which no toxicity was found ([1]; 4–1000 μg/mL with respect to the CT content): ≤ 250 µg/mL
cytotoxicity (in words) ([1]; at a concentration of 500 μg/mL (with respect to CT content)): moderate cytotoxicity
half-life of CT [2]: 70 h
Papp A→B [3]: ~3 ×10⁻⁶ cm/s

Molecule: CC(=O)N(O)CCCCCNC(=O)CCC(=O)N(O)CCCCCNC(=O)CCC(=O)N(O)CCCCCN [DFOA, deferoxamine methanesulfonate salt]
antibacterial properties against P. aeruginosa (P. aeruginosa): Neither DFOA nor PMAG is known to possess antibacterial properties

apparent permeability coefficient (Papp) (Caco-2 monolayer): ~ 77 × 10^−6 cm/s
Molecule: cyanocobalamin [vitamin B12]

Reference: article PMC11359296, “Poly(2-Deoxy-2-Methacrylamido-D-Glucose)-Based Complex Conjugates of Colistin, Deferoxamine and Vitamin B12: Synthesis and Biological Evaluation” (Pharmaceutics, 2024)
